Data: patent US20250327043A1, “ALCOHOL ACYLTRANSFERASE AND A […], TISSUE, AND ORGANISM COMPRISING SAME” (YEDA RESEARCH AND DEVELOPMENT CO. LTD., priority 2022, published 2025)
Entries after “also recorded” stand apart in the source; their conditions may differ.

How the values were obtained:
HuAAT5 = assay: AAT enzyme assay with the purified HuAAT5 enzyme; type: biochemical, Helichrysum umbraculigerum; conditions: acyl donors acetyl-, iso-butyryl-, iso-valeryl- or hexanoyl-CoA, 30° C., 3 h, pH 7.4
Description: (§1) Selected AAT genes from Helichrysum were individually cloned into the pET28b vector and expressed in E. coli BL21 (DE3) cells. Bacterial cells were grown overnight in LB medium at 37° C., diluted in fresh LB 1:100, and re-incubated at 37° C. When cultures reached A600=0.6, protein expression was induced with 400 μM of isopropyl-1-thio-β-d-galactopyranoside (IPTG) overnight at 15° C. Bacterial cells were lysed by sonication in 50 mM Tris-HCl pH 8, 0.5 mM phenylmethylsulfonyl fluoride (PMSF, Sigma Aldrich) solution in isopropanol, 10% glycerol and protease inhibitor cocktail (Sigma Aldrich), and 1 mg ml-1 lysozyme (Sigma Aldrich). The whole-cell extract was either kept for functional activity or used for protein purification. Purification of proteins was performed on Ni-NTA agarose beads (Adar Biotech). The proteins were eluted with 200 mM imidazole (Fluka) in a buffer containing 50 mM NaH2PO4, pH 8, and 0.5 M NaCl. Protein concentration of the eluted fractions was measured with Pierce™ 660 nm protein assay reagent (Thermo Scientific).
(§2) Recombinant AAT assays with the enzyme solutions using different donor and acceptor substrates were performed by mixing 7 μl of the cannabinoid acceptors (OA, CBGA, or heliCBGA, 1 mg ml^−1) with 58 μl of a potassium phosphate buffer (100 mM, pH 7.4) and incubating the mixture at 30° C. for 10 min. Next, 5 μl of the acyl-CoA donors (butyryl-CoA, hexanoyl-CoA, iso-valeryl-CoA, or acetyl-CoA, 10 mM) and 30 μl of the enzyme solutions were added. The reactions were incubated at 30° C. for 3 h. To stop the reactions, 100 μl ethanol was added to each tube, vortexed for 10 s, centrifuged at maximum speed for 10 min, and then the supernatant was recovered and used for UPLC-qTOF analysis. The assay with the purified HuAAT5 enzyme was performed by mixing 2 μl of the cannabinoid acceptors (OA, CBGA, heliCBGA, CBDA, Δ^9-THCA or CBCA) with 2 μl of the acyl-CoA donors (butyryl-CoA, iso-butyryl-CoA, hexanoyl-CoA, iso-valeryl-CoA, or acetyl-CoA, 10 mM), 44 μl of a potassium phosphate buffer (100 mM, pH 7.4), and 2 μl of the purified HuAAT5 enzyme solution. The reactions were incubated at 30° C. for 3 h. To stop the reactions, 50 μl ethanol was added to each tube and the acylated compounds were extracted and analyzed as previously described.

TRPV3 ion channel = biological target: T1, TRPV3 ion channel (Homo sapiens, UniProt Q8NET8); conditions: cited from earlier work
T1 sequence (Q8NET8 1-790): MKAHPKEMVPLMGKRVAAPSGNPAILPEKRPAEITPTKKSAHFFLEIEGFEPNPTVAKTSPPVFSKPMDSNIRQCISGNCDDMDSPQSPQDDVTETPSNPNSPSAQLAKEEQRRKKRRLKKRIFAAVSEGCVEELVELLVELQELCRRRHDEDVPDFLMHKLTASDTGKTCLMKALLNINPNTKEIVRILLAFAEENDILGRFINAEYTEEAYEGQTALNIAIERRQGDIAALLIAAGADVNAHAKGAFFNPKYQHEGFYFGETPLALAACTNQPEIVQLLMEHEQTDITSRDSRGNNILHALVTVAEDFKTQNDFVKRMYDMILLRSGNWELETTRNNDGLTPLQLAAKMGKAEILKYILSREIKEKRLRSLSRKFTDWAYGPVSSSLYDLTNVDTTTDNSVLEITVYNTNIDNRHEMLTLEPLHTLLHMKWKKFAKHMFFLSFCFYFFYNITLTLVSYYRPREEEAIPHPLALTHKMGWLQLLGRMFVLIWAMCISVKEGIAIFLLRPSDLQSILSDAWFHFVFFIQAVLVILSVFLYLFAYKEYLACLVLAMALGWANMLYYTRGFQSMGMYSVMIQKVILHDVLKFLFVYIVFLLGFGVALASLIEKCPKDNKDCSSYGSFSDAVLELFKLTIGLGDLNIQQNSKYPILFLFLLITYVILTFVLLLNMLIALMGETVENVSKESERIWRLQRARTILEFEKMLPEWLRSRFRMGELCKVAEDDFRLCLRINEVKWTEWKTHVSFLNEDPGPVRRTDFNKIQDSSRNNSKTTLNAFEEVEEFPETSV

[1] = Activity of E. coli lysates containing recombinant HuAATs (AAT enzyme assay, UPLC-qTOF readout); type: biochemical, Helichrysum umbraculigerum; conditions: for acyltransferase activity of lysate towards the substrates: butyryl-CoA and hexanoyl-CoA as acyl donors, CBGA and heliCBGA as acceptors, 30° C., 3 h
Description: as §1
as §2, with “The assay with the purified HuAAT5 enzyme was performed by mixing 2 μl of the cannabinoid acceptors (OA, CBGA, heliCBGA, CBDA, Δ^9-THCA or CBCA) with 2 μl of the acyl-CoA donors (butyryl-CoA, iso-butyryl-CoA, hexanoyl-CoA, iso-valeryl-CoA, or acetyl-CoA, 10 mM), 44 μl of a potassium phosphate buffer (100 mM, pH 7.4), and 2 μl of the purified HuAAT5 enzyme solution. The reactions were incubated at 30° C. for 3 h.” left out

## CCCCCc1cc2c(c(O)c1C(=O)O)[C@@H]1C=C(C)CC[C@H]1C(C)(C)O2 (relative stereo) [Δ^9-THCA, (−)-trans-Δ^9-tetrahydrocannabinolic acid]
HuAAT5
  acylation of the cannabinoid acceptor by purified HuAAT5: inactive

## CCCCCc1cc2c(c(O)c1C(=O)O)C=CC(C)(CCC=C(C)C)O2 (stereo not shown) [CBCA, cannabichromenic acid]
HuAAT5
  acylation of the cannabinoid acceptor by purified HuAAT5: inactive

## C=C(C)[C@@H]1CCC(C)=C[C@H]1c1c(O)cc(CCCCC)c(C(=O)O)c1O [CBDA, cannabidiolic acid]
HuAAT5
  acylation of the cannabinoid acceptor by purified HuAAT5: successfully acylated

## CCCCCc1cc(O)c(C/C=C(\C)CCC=C(C)C)c(O)c1C(=O)O [CBGA, cannabigerolic acid]
HuAAT5
  acylation of the cannabinoid acceptor by purified HuAAT5: successfully acylated

## CCC(C)C(=O)Oc1cc(CCc2ccccc2)cc(O)c1CC=C(C)C (stereo not shown) [O-methylbutyryl deprenylhelycannabigenol]
TRPV3 ion channel
  affinity for the ionotropic TRPV3 ion channel: sub-micromolar

## CCCCCc1cc(O)cc(O)c1C(=O)O [OA, Olivetolic acid]
HuAAT5
  acylation of the cannabinoid acceptor by purified HuAAT5: successfully acylated

## CC(C)=CCCC(C)=CCc1c(O)cc(CCc2ccccc2)c(C(=O)O)c1O [heliCBGA, helicannabigerolic acid]
HuAAT5
  acylation of the cannabinoid acceptor by purified HuAAT5: successfully acylated

B1: HuAAT5: BAHD alcohol acyltransferase from Helichrysum umbraculigerum, recombinantly expressed in E. coli, SEQ ID NO: 19 (protein, listed as Helichrysum umbraculigerum)
chain: MPSSSSSPSSTADSVTIISKCTVYPHMKNSTPESLQLSVSDLPMLSCQYIQKGVLLSQPPPNHTNNIISHLKLSLSKTLSHFPPLAGRLSTDSHGHVSIICNDSGVEFVHSTANHLHTHQILPLNSDVHPCFKTFFAFDKTLSYAGHHQPIAAVQVTELADGLFIGCTVNHAVVDGTSFWNFFNTFAEITKGCQKVTNLPDFSRENVFISPVVLPLPSGGPSATFSGDEPLRERIIHFSRDAILKMKFRANNPLWRQPQNSDLDDTEIYGKVCNDINGKVNGAFKPKSEISSFQSLCGQLWRAVTRARKFNDPIKTTTFRMAVNCRHRLDPKVDKLYFGNLIQSIPTVASVGELLSHDLSWAANELHQNVVAHDNATVRRGVKDWENNPKLFPLGNFDGAMITMGSSPRFPMYNNDFGWGRPMAVRSGKANKFDGKISAFPGRDGDGSVDLEVVLAPETMACLERDHEFMQYVS
[1]; HuAAT5 versus HuAAT14
  amounts of products catalyzed, compared between the two active enzymes: considerably greater amounts of products
[1]
  acyltransferase activity of lysate towards the substrates: showed activity towards all of these substrates; also recorded: acylated the cannabinoids with both acyl-CoAs

B2: HuAAT14: BAHD alcohol acyltransferase from Helichrysum umbraculigerum, recombinantly expressed in E. coli, SEQ ID NO: 30 (protein, listed as Helichrysum umbraculigerum)
chain: MGTIYQSPMIKSSTPKIIEDLKVIIHDTFTIFPPHETEKRSMFLSNIDQVLTFNVETVHFFAANPDFPPQVVAEKLKLALSKALVPYDFLAGRLKLNHESQRFEFDCNGAGARFVVGSSEFELGEIGDLVYPNPGFRQLVQKSYDNLELHEKPLCILQLTSFKCGGFALGVATNHATFDGLSFKTFLQNLGSLAADQPLAVDPCNDRHLLAARSPPKVQFDHPELLKIPTGTDIPNPTVFDCPESQLDFKIFNLTSDDIAHLKTKAKDGPGSTNAKITGFNVVAAHVWRCKALSSGSEYDPERVSTVLYAVDIRSRLNLPLSLAGNAVLSAYASAKCKEIEEGPLSRLVEMVTEGTNRMTGEYARSVIDWGEVNKGFPNGEFLISSWWRLGFADVEYPWGKPRYSCPVVYHRKDIILLFPDIVGADNNNEVNVLVALPGKEMEKFETLFHKFLA
[1]
  acyltransferase activity of lysate towards the substrates: showed activity towards all of these substrates; also recorded: acylated the cannabinoids with both acyl-CoAs
